Ki data for 29 molecules are collected here from US12617797B2, “Substituted pyrazolo [1,5-a]pyrimidines having multimodal activity against pain” (ESTEVE PHARMACEUTICALS, S.A., priority 2020, dated 2026).

pKi: −log10 of the molar value.

For experiment [1], the target named is Human α2δ-1 subunit of Cav2.2 calcium channel (Homo sapiens, UniProt P54289). The experiment is described as follows: Human α2δ-1 subunit of Cav2.2 calcium channel assay ([3H]-gabapentin binding). To be noted: binding to the α2δ-1 subunit of voltage-gated calcium channels expressed as Ki; + also covers inhibition between 1% and 50%. The procedure, abridged:
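Membranes enriched in human α2δ-1 incubated with 15 nM [3H]-gabapentin in 10 mM Hepes-KOH pH 7.4, 60 min at 27 °C; nonspecific binding defined with 10 μM pregabalin. Filtration and scintillation counting; % inhibition at 1 or 10 μM, or Ki from five concentrations.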

The target of a further experiment is T1, Human σ1 receptor (Homo sapiens, UniProt Q99720).
T1 construct: expressed in transfected cells; host or cells: HEK-293
T1 sequence (Q99720 whole entry): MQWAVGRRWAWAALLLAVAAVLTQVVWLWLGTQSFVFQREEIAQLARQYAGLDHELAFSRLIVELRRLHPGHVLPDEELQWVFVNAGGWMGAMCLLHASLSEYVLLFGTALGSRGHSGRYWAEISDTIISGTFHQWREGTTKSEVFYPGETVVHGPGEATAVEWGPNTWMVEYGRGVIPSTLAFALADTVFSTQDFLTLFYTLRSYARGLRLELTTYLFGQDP
Description: Human σ1 receptor radioligand assay ([3H](+)-pentazocine binding, transfected HEK-293 membranes). To be noted: binding to σ1 receptor expressed as Ki; + also covers inhibition between 1% and 50%; read-out: σ-1 binding. The essentials:
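Membranes (7 μg) were incubated with 5 nM [3H](+)-pentazocine in 50 mM Tris-HCl pH 8 for 120 min at 37° C. Non-specific binding was defined with 10 μM haloperidol. Values are % inhibition at 1 or 10 μM or Ki from five concentrations, read by filtration and scintillation counting.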

Sequence of Human α2δ-1 subunit of Cav2.2 calcium channel (P54289 25-1103): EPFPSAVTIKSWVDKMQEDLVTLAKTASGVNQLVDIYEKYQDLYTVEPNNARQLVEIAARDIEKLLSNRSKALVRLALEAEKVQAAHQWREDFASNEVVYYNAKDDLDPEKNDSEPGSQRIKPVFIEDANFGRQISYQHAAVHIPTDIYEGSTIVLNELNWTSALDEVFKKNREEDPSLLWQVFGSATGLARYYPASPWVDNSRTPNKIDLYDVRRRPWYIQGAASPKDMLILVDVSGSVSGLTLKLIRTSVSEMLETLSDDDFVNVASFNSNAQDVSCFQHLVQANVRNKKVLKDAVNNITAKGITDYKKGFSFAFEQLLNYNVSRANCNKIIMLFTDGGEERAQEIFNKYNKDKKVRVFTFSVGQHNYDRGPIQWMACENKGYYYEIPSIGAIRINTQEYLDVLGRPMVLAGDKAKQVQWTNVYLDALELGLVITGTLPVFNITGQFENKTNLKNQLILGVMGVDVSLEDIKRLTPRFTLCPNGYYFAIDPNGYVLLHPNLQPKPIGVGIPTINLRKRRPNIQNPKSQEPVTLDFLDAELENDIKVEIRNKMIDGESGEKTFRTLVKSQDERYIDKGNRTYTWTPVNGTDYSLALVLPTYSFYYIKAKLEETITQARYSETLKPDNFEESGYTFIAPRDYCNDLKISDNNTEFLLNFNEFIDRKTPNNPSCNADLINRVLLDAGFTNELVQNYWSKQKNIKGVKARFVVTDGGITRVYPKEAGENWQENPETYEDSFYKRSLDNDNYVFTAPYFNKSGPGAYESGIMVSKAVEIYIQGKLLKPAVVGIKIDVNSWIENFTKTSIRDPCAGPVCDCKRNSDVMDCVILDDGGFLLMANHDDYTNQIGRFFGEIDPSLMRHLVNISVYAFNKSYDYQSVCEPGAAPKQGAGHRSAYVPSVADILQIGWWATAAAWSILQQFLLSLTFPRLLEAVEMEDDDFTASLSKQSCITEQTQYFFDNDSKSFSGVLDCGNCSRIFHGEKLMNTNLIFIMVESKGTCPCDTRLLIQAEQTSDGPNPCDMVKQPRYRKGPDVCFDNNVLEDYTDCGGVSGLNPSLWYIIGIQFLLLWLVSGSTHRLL

For `Cc1cnc2c(-c3ccncc3)cnn2c1C1CCCN(Cc2ccccn2)C1` (stereo not shown) [Example 74, 6-Methyl-7-(1-(pyridin-2-ylmethyl)piperidin-3-yl)-3-(pyridin-4-yl)pyrazolo[1,5-a]pyrimidine], the figures for the pKi (in experiment [1]; at Human σ1 receptor) were 5.30 to 6.30 and under 6.00, respectively.
Taken in the same sequence, the figures for `Cc1nn2c([C@@H]3CCCN(Cc4ccc(Cl)cc4)C3)ccnc2c1CN[C@H](C)c1ccccc1` [Example 195, (R)—N-((7-((R)-1-(4-Chlorobenzyl)piperidin-3-yl)-2-methylpyrazolo[1,5-a]pyrimidin-3-yl)methyl)-1-phenylethan-1-amine] were 5.30 to 6.30 and over 6.30.
In the case of `Fc1ccc(CN2CCCC(c3ccnc4cc(Br)nn34)C2)cc1F` (stereo not shown) [Example 113, 2-Bromo-7-(1-(3,4-difluorobenzyl)piperidin-3-yl)pyrazolo[1,5-a]pyrimidine], the figures for the pKi (in experiment [1]; on Human σ1 receptor) were 5.30 to 6.30 and under 6.00, respectively.
Turning to `Cc1nn2c([C@H]3CCCN(Cc4ccccc4)C3)ccnc2c1CNC[C@H]1CCC(=O)NC1` [Example 245, (R)-5-((((7-((S)-1-Benzylpiperidin-3-yl)-2-methylpyrazolo[1,5-a]pyrimidin-3-yl)methyl)amino)methyl)piperidin-2-one], the pKi in experiment [1] is 5.30 to 6.30; on Human σ1 receptor, under 6.00.
As for `Cc1nn2c(C3CCCN(Cc4ccc(Cl)cc4)C3)ccnc2c1CNCC(F)(F)F` (stereo not shown) [Example 156, N-((7-(1-(4-Chlorobenzyl)piperidin-3-yl)-2-methylpyrazolo[1,5-a]pyrimidin-3-yl)methyl)-2,2,2-trifluoroethan-1-amine], the pKi was under 5.30 in experiment [1] and 6.00 to 6.30 at Human σ1 receptor.
With `CN(C)Cc1cc2nccc(C3CCCN(Cc4ccccc4)C3)n2n1` (stereo not shown) [Example 92, 1-(7-(1-Benzylpiperidin-3-yl)pyrazolo[1,5-a]pyrimidin-2-yl)-N,N-dimethylmethanamine], the pKi in experiment [1] is 5.30 to 6.30; on Human σ1 receptor, under 6.00.
On the same counts, the results for `Cc1nn2c(C3CCCN(Cc4ccc(Cl)cc4)C3)ccnc2c1CN(CC1CCOCC1)CC(F)(F)F` (stereo not shown) [Example 235, N-((7-(1-(4-Chlorobenzyl)piperidin-3-yl)-2-methylpyrazolo[1,5-a]pyrimidin-3-yl)methyl)-2,2,2-trifluoro-N-((tetrahydro-2H-pyran-4-yl)methyl)ethan-1-amine] are under 5.30 and 6.00 to 6.30.
Taken in the same sequence, the figures for `Cc1nn2c([C@H]3CCCN(Cc4ccc(Cl)cc4)C3)ccnc2c1CNC[C@@H]1CCOC(C)(C)C1` [Example 223] were under 5.30 and over 6.30.
On the same counts, the results for `c1ccc(CN2CCCC(c3ccnc4cc(-c5ccccc5)nn34)C2)cc1` (stereo not shown) [Example 12, 7-(1-Benzylpiperidin-3-yl)-2-phenylpyrazolo[1,5-a]pyrimidine] are under 5.30 and 6.00 to 6.30.
`Cc1nn2c([C@H]3CCCN(Cc4ccc(Cl)cc4)C3)ccnc2c1CN[C@H](C)C1CCOCC1` [Example 226, (R)—N-((7-((S)-1-(4-chlorobenzyl)piperidin-3-yl)-2-methylpyrazolo[1,5-a]pyrimidin-3-yl)methyl)-1-(tetrahydro-2H-pyran-4-yl)ethan-1-amine]: the pKi in experiment [1] was 5.30 to 6.30; on Human σ1 receptor it was over 6.30.
On the same counts, the results for `Cc1nn2c(C3CCCN(Cc4ccc(Cl)cc4)C3)ccnc2c1CNC(C)C` (stereo not shown) [Example 159, N-((7-(1-(4-Chlorobenzyl)piperidin-3-yl)-2-methylpyrazolo[1,5-a]pyrimidin-3-yl)methyl)propan-2-amine] are 5.30 to 6.30 and over 6.30.
Take `Cc1nn2c([C@@H]3CCCN(Cc4ccc(Cl)cc4)C3)ccnc2c1CNC[C@H]1CCOC(C)(C)C1` [Example 222]: the pKi is under 5.30 in experiment [1] and over 6.30 at Human σ1 receptor.
On to `Cc1nn2c([C@H]3CCCN(Cc4ccccc4F)C3)ccnc2c1CNCC1CCOCC1` [Example 239, (S)-1-(7-(1-(2-Fluorobenzyl)piperidin-3-yl)-2-methylpyrazolo[1,5-a]pyrimidin-3-yl)-N-((tetrahydro-2H-pyran-4-yl)methyl)methanamine], for which the pKi in experiment [1] was under 5.30; at Human σ1 receptor, over 6.30.
On the same counts, the results for `Cc1nn2c(C3CCCN(Cc4ccccc4)C3)ccnc2c1CCCN` (stereo not shown) [Example 103, 3-(7-(1-Benzylpiperidin-3-yl)-2-methylpyrazolo[1,5-a]pyrimidin-3-yl)propan-1-amine] are 5.30 to 6.30 and under 6.00.
For the molecule `CN[C@@H]1CCN(c2cc3nccc([C@H]4CCCN(Cc5ccccc5)C4)n3n2)C1` [Example 87, (R)-1-(7-((S)-1-Benzylpiperidin-3-yl)pyrazolo[1,5-a]pyrimidin-2-yl)-N-methylpyrrolidin-3-amine], the pKi in experiment [1] is 5.30 to 6.30; at Human σ1 receptor, under 6.00.
On to `Cc1nn2c(C3CCCN(Cc4ccc(Cl)cc4Cl)C3)ccnc2c1-c1ccncc1` (stereo not shown) [Example 124, 7-(1-(2,4-Dichlorobenzyl)piperidin-3-yl)-2-methyl-3-(pyridin-4-yl)pyrazolo[1,5-a]pyrimidine], for which the pKi in experiment [1] is under 5.30; on Human σ1 receptor, 6.00 to 6.30.
On the same counts, the results for `Cc1nn2c(C3CCCN(Cc4ccc(Cl)c(Cl)c4)C3)ccnc2c1-c1ccncc1` (stereo not shown) [Example 123, 7-(1-(3,4-Dichlorobenzyl)piperidin-3-yl)-2-methyl-3-(pyridin-4-yl)pyrazolo[1,5-a]pyrimidine] are 5.30 to 6.30 and under 6.00.
Taken in the same sequence, the figures for `CCOc1cc(-c2c(C)nn3c(C4CCCN(Cc5ccc(Cl)cc5)C4)ccnc23)ccn1` (stereo not shown) [Example 136, 7-(1-(4-Chlorobenzyl)piperidin-3-yl)-3-(2-ethoxypyridin-4-yl)-2-methylpyrazolo[1,5-a]pyrimidine] were under 5.30 and under 6.00.
Taken in the same sequence, the figures for `CNCc1cc(-c2c(C)nn3c(C4CCCN(Cc5ccccc5)C4)ccnc23)ccn1` (stereo not shown) [Example 62, 1-(4-(7-(1-Benzylpiperidin-3-yl)-2-methylpyrazolo[1,5-a]pyrimidin-3-yl)pyridin-2-yl)-N-methylmethanamine] were 5.30 to 6.30 and under 6.00.
Take `Cc1nn2c(C3CCCN(Cc4ccc(F)c(F)c4)C3)ccnc2c1CNCC1CCOCC1` (stereo not shown) [Example 182, 1-(7-(1-(3,4-Difluorobenzyl)piperidin-3-yl)-2-methylpyrazolo[1,5-a]pyrimidin-3-yl)-N-((tetrahydro-2H-pyran-4-yl)methyl)methanamine]: the pKi (in experiment [1]; at Human σ1 receptor) was over 6.30 each time.
In the case of `Cc1cnc2c(CNCC3CCOCC3)c(C)nn2c1C1CCCN(Cc2ccc(Cl)cc2)C1` (stereo not shown) [Example 237, 1-(7-(1-(4-Chlorobenzyl)piperidin-3-yl)-2,6-dimethylpyrazolo[1,5-a]pyrimidin-3-yl)-N-((tetrahydro-2H-pyran-4-yl)methyl)methanamine], the pKi (in experiment [1]; on Human σ1 receptor) was over 6.30 throughout.
Regarding `Clc1ccc(CN2CCCC(c3ccnc4c(CNCC5CCOCC5)c(Br)nn34)C2)cc1` (stereo not shown) [Example 120, 1-(2-Bromo-7-(1-(4-chlorobenzyl)piperidin-3-yl)pyrazolo[1,5-a]pyrimidin-3-yl)-N-((tetrahydro-2H-pyran-4-yl)methyl)methanamine], the pKi (in experiment [1]; on Human σ1 receptor) was over 6.30 throughout.
For the molecule `Clc1ccc(CN2CCCC(c3ccnc4cc(Br)nn34)C2)cc1Cl` (stereo not shown) [Example 112, 2-Bromo-7-(1-(3,4-dichlorobenzyl)piperidin-3-yl)pyrazolo[1,5-a]pyrimidine], the pKi in experiment [1] was under 5.30; on Human σ1 receptor, under 6.00.
Taken in the same sequence, the figures for `CC(=O)N1CCC(CNCc2c(Cl)nn3c(C4CCCN(CCC(C)C)C4)ccnc23)CC1` (stereo not shown) [Example 192, 1-(4-((((2-chloro-7-(1-isopentylpiperidin-3-yl)pyrazolo[1,5-a]pyrimidin-3-yl)methyl)amino)methyl)piperidin-1-yl)ethan-1-one] were under 5.30 and over 6.30.
As for `Cc1nn2c(C3CCCN(Cc4ccccc4)C3)ccnc2c1CN(CC1C[C@@H](C)O[C@@H](C)C1)C(C)C` (stereo partly drawn) [Example 233, N-((7-(1-Benzylpiperidin-3-yl)-2-methylpyrazolo[1,5-a]pyrimidin-3-yl)methyl)-N-(((2R,6S)-2,6-dimethyltetrahydro-2H-pyran-4-yl)methyl)propan-2-amine], the figures for the pKi (in experiment [1]; at Human σ1 receptor) were under 5.30 and 6.00 to 6.30, respectively.
`Cc1nn2c([C@@H]3CCCN(Cc4ccc(Cl)cc4)C3)ccnc2c1CNCC1CCOCC1` [Example 200, (R)-1-(7-(1-(4-chlorobenzyl)piperidin-3-yl)-2-methylpyrazolo[1,5-a]pyrimidin-3-yl)-N-((tetrahydro-2H-pyran-4-yl)methyl)methanamine]: the results for the pKi (in experiment [1]; on Human σ1 receptor) were under 5.30 and over 6.30, respectively.
Take `Cc1nn2c(C3CCCN(Cc4ccc(Cl)cc4)C3)ccnc2c1CCN(C)C` (stereo not shown) [Example 236, 2-(7-(1-(4-Chlorobenzyl)piperidin-3-yl)-2-methylpyrazolo[1,5-a]pyrimidin-3-yl)-N,N-dimethylethan-1-amine]: the pKi is 5.30 to 6.30 in experiment [1] and over 6.30 at Human σ1 receptor.
Taken in the same sequence, the figures for `Clc1ccc(CN2CCCC(c3ccnc4c(CNCC5CCOCC5)c(Cl)nn34)C2)cc1` (stereo not shown) [Example 190, 1-(2-Chloro-7-(1-(4-chlorobenzyl)piperidin-3-yl)pyrazolo[1,5-a]pyrimidin-3-yl)-N-((tetrahydro-2H-pyran-4-yl)methyl)methanamine] were over 6.30 and over 6.30.
On the same counts, the results for `CC(=O)N1CCN(Cc2c(C)nn3c(C4CCCN(Cc5ccc(Cl)cc5)C4)ccnc23)CC1` (stereo not shown) [Example 174, 1-(4-((7-(1-(4-Chlorobenzyl)piperidin-3-yl)-2-methylpyrazolo[1,5-a]pyrimidin-3-yl)methyl)piperazin-1-yl)ethan-1-one] are 5.30 to 6.30 and under 6.00.
